According to patent US20210060108A1, “INULA HELENIUM EXTRACTS FOR TREATING AND PREVENTING POLLUTION RELATED DAMAGE” (priority 2017, published 2021):

Assay: Heavy metal (ferrous ion-Ferrozine) chelation assay
Type: biochemical
Conditions: Fe2+ chelation; calculated based on unpreserved extract dry weight
Method: The IC50 refers to the amount of extract required to chelate 50% of the available iron (II) in the assay. The lower the number, the higher the chelation power of an extract.
The ability of Inula extract to act as an anti-pollutant or antagonist of the adverse effects of pollutants and/or toxins in pollutants was further investigated in heavy metal chelation assays. Further to this objective, Inula extracts was tested in in vitro assay to assess its chelator power. In this assay, the ferrous ion is used as a model for heavy metals. The concentration of the ferrous iron-Ferrozine complex was measured by spectrophotometry (absorbance at 562 nm) to determine the Fe 2+-chelating ability of the extract or fraction. The reaction mixture, containing 2 Mm FeCl2 and 5 mM ferrozine was adjusted to 2 ml with bi-distilled water. The mixture was shaken and incubated for 10 min at room temperature. The absorbance of the mixture was measured at 562 nm against a blank EDTA was used as positive control. The choice of an internal reference may be adjusted in accordance with the heavy metal assay performed and such references are known in the art. Chelating power is expressed as an IC50 value (mg/ml) and reflects the concentration at which 50% of the available iron was chelated by, for example, supplemental extract added to the assay mix.

IC50* (mg/ml DRY WEIGHT): 0.038 mg/ml DRY WEIGHT
SMILES: O=C(O)CN(CCN(CC(=O)O)CC(=O)O)CC(=O)O [EDTA (reference), EDTA]
